Reference: patent publication US20260138969A1 (Korea Research Institute of Chemical Technology, priority 2023, published 2026)

Key:
[1] = test system: α-Syn transgenic Parkinson's disease mouse model; experiment: α-Syn transgenic Parkinson's disease mouse model: microglial reduction (Iba-1); format: in vivo; conditions: 9 months of age; Memantine 10 mg/kg (G3), G4 2 mg/kg, G5 10 mg/kg, G7 2 mg/kg PO QD
Method: (§1) The test drug was administered once daily (QD) via oral administration (PO) with a solution of 5 ml/kg for 5 months from 4 months to 9 months of age. Motor behavior tests (beam test) and neurological scores (modified Irwin test) were performed at 4 months (before administration), 7 months, and 9 months. After the final behavioral test, tissue samples were taken. Weight was measured on the same day once a week from 4 months of age until the end of the study.
At 9 months of age, the measurement period ended, the mice were anesthetized, and then the experiment was terminated by cardiac puncture according to IACUC guidelines. Mice were perfused transcardially with 0.9% saline for tissue staining, followed by 4% paraformaldehyde until the mice were fixed. The brains were isolated and immobilized by soaking in 4% paraformaldehyde at 4° C. for 24 hours, followed by 30% sucrose added to PBS containing 0.02% sodium azide and stored at 4° C. for 3 days. Brain samples embedded in OCT compounds were sectioned to a thickness of 20 μm using Leica CM1950 (Leica Microsystems, Germany). The sections were stored at 4° C. in a preservation solution until they were stained by antibodies. […]
To assess microgliosis of the cortex, Iba-1-stained brain tissue was imaged in experimental example 10.5 using an immunofluorescence microscope (Olympus, BZ21) in Olympus. Each marker was manually counted to quantify Iba1.

[2] = test system: α-Syn transgenic Parkinson's disease mouse model; experiment: α-Syn transgenic Parkinson's disease mouse model: step error (beam test); format: in vivo; conditions: at 7 and 9 months; Memantine 10 mg/kg, Example 3 2/10/50 mg/kg, Example 2 2 mg/kg PO QD; vs G2
Method: as §1
The procedure described by Fleming et al. (J Neurosci, 24:9434-40, 2004) was adopted as the beam test (Challenging Beam Traversal). Exercise capacity was measured with a new beam test that was a modification of the existing beam walking test. The beam is made of Plexiglas and consists of four sections (each 25 cm and a total length of 1 m), each with a different width. The beam is designed to start at 3.5 cm wide and gradually narrow in increments of 0.5 cm×1 cm. A shelf 1 cm wide was placed 1.0 cm below the top surface of the beam.
The mouse was trained to cross the length of the beam, starting from the widest section and ending with the narrowest and most difficult section. The narrow end of the beam is designed to connect directly to the mouse's house cage. The mice were trained for two days before testing, and all training was carried out without a mesh grid. On the first day, two auxiliary exercises were performed, in which the mouse was placed on a beam and the home cage was placed close to the mouse. This induces it to move forward along the beam. […]
The error was counted if the limb (front or hind leg) passed through the grid during forward movement and was visible between the grid and the beam surface. […] Error was measured by scoring each limb slippage individually. For example, a mouse with three limbs slipping off the grid in one step was rated with an error score of 3 points, while a mouse with only one limb slipped off the grid in one step was evaluated with an error score of 1 in that step. […] The number of step errors and the time it took to cross were measured and averaged in all five experiments.

[3] = biological target: T1, recombinant human ASK1 protein (Homo sapiens, UniProt Q99683); experiment: Evaluation of ASK1 inhibition activity ([gamma-33P]-ATP, scintillation counting); format: biochemical
T1 sequence (Q99683 1-1374): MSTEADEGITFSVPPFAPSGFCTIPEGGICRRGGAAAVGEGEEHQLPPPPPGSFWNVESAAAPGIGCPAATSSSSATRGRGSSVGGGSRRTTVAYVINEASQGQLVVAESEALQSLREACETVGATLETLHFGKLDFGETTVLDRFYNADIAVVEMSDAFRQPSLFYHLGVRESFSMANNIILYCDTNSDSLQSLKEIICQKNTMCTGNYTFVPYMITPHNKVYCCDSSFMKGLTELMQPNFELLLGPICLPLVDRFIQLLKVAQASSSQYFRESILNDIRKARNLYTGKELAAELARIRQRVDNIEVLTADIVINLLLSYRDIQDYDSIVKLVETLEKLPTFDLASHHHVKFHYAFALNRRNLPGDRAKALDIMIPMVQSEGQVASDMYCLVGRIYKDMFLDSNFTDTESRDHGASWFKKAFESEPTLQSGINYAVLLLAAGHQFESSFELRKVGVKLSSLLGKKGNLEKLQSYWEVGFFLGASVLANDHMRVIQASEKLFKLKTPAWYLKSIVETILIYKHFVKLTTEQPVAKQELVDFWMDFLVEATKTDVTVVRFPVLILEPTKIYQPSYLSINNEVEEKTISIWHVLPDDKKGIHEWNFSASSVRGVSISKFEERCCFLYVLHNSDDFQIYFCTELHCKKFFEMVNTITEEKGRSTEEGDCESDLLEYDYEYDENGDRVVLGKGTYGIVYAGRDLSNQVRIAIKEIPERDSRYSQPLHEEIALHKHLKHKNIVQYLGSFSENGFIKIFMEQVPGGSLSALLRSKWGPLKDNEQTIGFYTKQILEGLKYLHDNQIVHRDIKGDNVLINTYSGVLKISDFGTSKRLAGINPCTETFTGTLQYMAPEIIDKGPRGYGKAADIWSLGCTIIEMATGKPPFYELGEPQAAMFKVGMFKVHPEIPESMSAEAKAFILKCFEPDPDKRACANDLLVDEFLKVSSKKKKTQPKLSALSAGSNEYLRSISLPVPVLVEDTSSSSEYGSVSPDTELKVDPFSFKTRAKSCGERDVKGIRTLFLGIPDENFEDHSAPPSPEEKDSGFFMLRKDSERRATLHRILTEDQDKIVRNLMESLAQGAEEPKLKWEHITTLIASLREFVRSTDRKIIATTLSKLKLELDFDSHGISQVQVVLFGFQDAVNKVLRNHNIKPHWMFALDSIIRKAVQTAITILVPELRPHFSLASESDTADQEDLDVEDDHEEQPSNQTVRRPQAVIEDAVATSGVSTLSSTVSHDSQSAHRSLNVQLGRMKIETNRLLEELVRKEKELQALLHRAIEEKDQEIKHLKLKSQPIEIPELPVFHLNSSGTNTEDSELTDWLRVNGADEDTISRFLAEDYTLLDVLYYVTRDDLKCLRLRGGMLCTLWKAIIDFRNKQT
Method: The recombinant human ASK1 protein was initiated by adding a mixture of Mg/ATP to the reaction solution (8 mM MOPS PH 7.0, 0.2 mM EDTA, 0.33 mg/mL myelin basic protein, 10 mM Mg Acetate and [gamma-33P]-ATP), and the reaction was terminated by adding 0.5% phosphoric acid after 40 min at room temperature.

MDR1 = experiment: MDR-MDCK cell membrane permeability assessment; format: in vitro ADME; conditions: dog; MDCK-MDR1 monolayer
Method: (§2) MDCK-MDR1 cells (5×10^5 cells/mL) were incubated on a 24-transwell plate (Corning, NY, USA) for 4 days to measure permeability through a single layer of MDR-MDCK cells. The medium was replaced with a new medium every two days, and the electrical resistance between epithelial tissues (TEER) was measured using a Millicell® ERS-2 Volohmmeter (Merck KGaA, Darmstadt, Germany), and the cell membrane permeability test was performed after confirming that this value was greater than or equal to 300 Ohm.cm^2.
(§3) The apical and basolateral chambers were washed twice each in the order of Hanks' Balanced Salt Solution (HBSS) containing DPBS buffer and 10 mM Hydroxyethyl piperazine Ethane sulfonic acid (HEPES), and in the final washing step, HBSS was filled and maintained at a stable state at 37° C. for 30 minutes. After 30 minutes, the test material was instilled in each chamber and left at 37° C. for 2 hours, and the culture medium of the transferred layer was collected at 30-minute intervals, and the collected amount was supplemented with new HBSS.
(§4) The apparent permeability coefficient (Papp, cm/sec) was calculated using the following formula:
(§5) [formula] • Papp: Apparent permeability • dQ/dt: Permeability of the drug • A: Area of the filter membrane on which the cells are laid • C_0: Initial concentration of the drug
(§6) In addition, the Efflux ratio was calculated as follows: […]

[4] = MDR-MDCK cell membrane permeability assessment; format: in vitro ADME; conditions: dog; MDCK-MDR1 monolayer, 37° C., 2 hours
Method: as §2, §3, §4, §5, §6

In the case of CC12CC3CC(C)(C1)CC(N)(C3)C2 [Memantine, reference compound], the “number of IBA-1 positive cells in the cerebral cortex” value [1] is reported as “significantly reduced” and the “number of step errors (beam test)” value [2] is reported as “significant reduction in the number of step errors compared to Group G2”.
Cc1cc(F)c(C(=O)Nc2cccc(-n3nnc4c3CCCCC4)n2)cc1-n1cnc(C2CC2)c1 [Example 4, 5-(4-cyclopropyl-1H-imidazole-1-yl)-2-fluoro-4-methyl-N-(6-(5,6,7,8-tetrahydrocyclohepta[d][1,2,3]triazole-1 (4H)-yl)pyridine-2-yl)benzamide] gave an IC50 [3] of 92 nM, an efflux ratio at 2 h (MDR1) of 1.53 and a Papp A→B at 2 h [4] of 57.3 ± 4.23 ×10⁻⁶ cm/s. For the same compound, the Papp B→A at 2 h [4] was 87.4 ± 3.39 ×10⁻⁶ cm/s.
